Source: patent US12686657B2, “Anti-inflammatory carboxamide derivatives” (BIOMEDCODE HELLAS SA, priority 2021, dated 2026)

System: C57BL/6J mice
Assay: In vivo LPS acute systemic inflammation model, serum cytokines and chemokines (Legendplex)
Design: key to IL-1β in sera, Average / IL-17A in sera, Average / IL-27 in sera, Average / GM-CSF in sera, Average / KC in sera, Average / MCP1 in sera, Average / IP-10 in sera, Average / MIP-1A in sera, Average / MIP-1B in sera, Average / MDC in sera, Average / IL-23 in sera, Average / TNF-α in sera, Average: serum concentration in pg/ml; IL12p70 in sera, Average / IFN-γ in sera, Average: unit: pg/ml
Settings: 1 μg LPS i.p.
Description: In order to evaluate in vivo the anti-inflammatory effect of the test compounds a model of in vivo LPS acute systemic inflammation was used where C57BL/6J mice were challenged by administration of 1 μg LPS. Each one of the compounds 51 to 53 was administered to C57BL/6J mice per os in two doses of 50 mg. Two hours after administering the first dose, the animals received the second p.o. dose of each compound and were also challenged with 1 μg LPS intraperitoneally. Sera samples were collected 1.5 hrs post induction in order to measure the levels of 13 cytokines using the pro-inflammatory panel from Legendplex (cat no 740446) and following manufacturer's instructions. Four biological replicates were performed and the average and SEM were calculated with the obtained results.
The same protocol was followed but administering compound 53 at 100 mg/kg. In this case both the levels of the 13 cytokines but also of 13 chemokines were measured, using the pro-inflammatory panel from Legendplex (cat no 740007).
The anti-inflammatory effect of the test compounds 51, 52 and 53 was assessed in vivo in the LPS model of acute inflammation. Administration of the endotoxin Lipopolysaccharide (LPS) to mice induces acute inflammatory responses similar to the inflammatory response that occurs during the early stages of septic shock. Shortly after administration of the endotoxin, cytokines and chemokines are released. This model is fast, cost-effective and widely used for screening of anti-inflammatory properties of test items aimed for treatment of a number of inflammatory and autoimmune conditions (Seemann et al., 2017; Stortz et al., 2017).
Sera samples from the treated mice with the 50 mg/Kg doses of the test compounds 51-53 were evaluated using the mouse pro-inflammatory panel of Legendplex and the data acquired are presented as pg/ml in Table 11. Vehicle, 52 and 53 were tested in quadruplicates (vehicle_1-4), 51 in triplicate (51_1-3).
Sera samples from the treated mice with test compounds 53 with 100 mg/Kg were also evaluated using the mouse pro-inflammatory cytokine and chemokine panel of Legendplex and the effect of compound 53 at a higher dose (100 mg/kg) in inhibiting inflammatory cytokines and chemokines is presented in the Table 12 below.

[1] = 50 mg/Kg per os, two doses, sera 1.5 hrs post induction

SMILES	IL-1α in sera, Average [1]	IL-1β in sera, Average [1]	IL-6 in sera, Average [1]	IL-10 in sera, Average [1]	IL-17A in sera, Average [1]	MCP-1 in sera, Average [1]	GM-CSF in sera, Average (100 mg/kg p.o.)	IFN-γ in sera, Average (100 mg/kg p.o.)	IL12p70 in sera, Average (100 mg/kg p.o.)	IL-1β in sera, Average (100 mg/kg p.o.)	IL-17A in sera, Average (100 mg/kg p.o.)	IL-23 in sera, Average (100 mg/kg p.o.)	IL-27 in sera, Average (100 mg/kg p.o.)	IP-10 in sera, Average (100 mg/kg p.o.)	KC in sera, Average (100 mg/kg p.o.)	MCP1 in sera, Average (100 mg/kg p.o.)	MDC in sera, Average (100 mg/kg p.o.)	MIP-1A in sera, Average (100 mg/kg p.o.)	MIP-1B in sera, Average (100 mg/kg p.o.)	TNF-α in sera, Average (100 mg/kg p.o.)
COc1cc(N)c(Cl)cc1C(=O)NCC1(c2ccc(Cl)cc2)CCCCC1 [Compound 51, 4-amino-5-chloro-N-((1-(4-chlorophenyl)cyclohexyl)methyl)-2-methoxybenzamide]	27.4 pg/mL	87.0 pg/mL	4702.5 pg/mL	1774.5 pg/mL	43.8 pg/mL	4689.1 pg/mL														
COc1cc(N)c(Cl)cc1C(=O)NCC1(c2ccc(Cl)cc2)CCCCCC1 [Compound 52, 4-amino-5-chloro-N-((1-(4-chlorophenyl)cycloheptyl)methyl)-2-methoxybenzamide]	43.1 pg/mL	118.5 pg/mL	3988.8 pg/mL	1692.2 pg/mL	27.7 pg/mL	4916.5 pg/mL														
COc1cc(N)c(Cl)cc1C(=O)NCC1(Nc2ccc(Cl)cc2)CCCCCC1 [Compound 53, 4-amino-5-chloro-N-((1-((4-chlorophenyl)amino)cycloheptyl)methyl)-2-methoxybenzamide]	67.3 pg/mL	113.1 pg/mL	5145 pg/mL	2616.1 pg/mL	55.1 pg/mL	5149 pg/mL	9.8	6.7	5.7	12.4	3.7	16.6	16.1	45.2	4227.5	1246.2	56.6	244.3	1301.1	136.8
